The text below walks through data of patent US20040242524A1, “Chemotherapeutic composition and method” (priority 1998, published 2004).

Values after ≈ are worked out from the molar mass of the structure shown. Values joined by “and” are separate entries in the source; they are usually repeats but may differ in a detail not shown here. Identical values can stand only once. Like-named read-outs stand apart in the source and are kept apart here.

Assay [1] has as its system B-16 melanoma cells. Put plainly: Inhibition of B-16 melanoma cell proliferation by chemotherapeutic agents ± MCC (MTT reduction). The assay is classed as cell-based, murine. As to conditions: for IC50: B16; for inhibited proliferation: 72 h, MTT. On the procedure: B-16 melanoma cells, at 3×10^5 cells/ml, were incubated for 72 h with the chemotherapeutic agents mitomycin-C, 5-fluorouracil and cisplatin in the absence and in the presence of MCC. Cell proliferation was determined using dimethylthiazol-diphenyltetrazolium bromide (MTT) reduction (Mosman et al. Journal of Immunological Methods 65:55-63, 1983). After 72 h, 20 μl of MTT in culture medium was added to each well and incubated for 3 h. Medium was then aspirated from each well, 100 μl of acidified isopropyl alcohol was added to each sample and reduced MTT was solubilized by mixing. The absorbency of the reaction product was determined using an ELISA microplate reader at a wavelength of 570 nm.
B-16 melanoma cells were incubated with 0.01 to 100 μg/ml of mitomycin-C, with 1 to 100 μg/ml of MCC and with 0.01 to 10 μg/ml of mitomycin-C+1 μg/ml MCC. Mitomycin-C is an anti-tumor antibiotic produced by Streptomyces caespitosus, which cross-links DNA, depolymerizes DNA and forms free radicals.
B-16 melanoma cells were incubated with 0.01 to 100 μg/ml of 5-fluorouracil, with 1 to 100 μg/ml of MCC and with 0.01 to 10 μg/ml of 5-fluorouracil+1 μg/ml MCC. 5-fluorouracil is an antimetabolite, which interferes with DNA and RNA synthesis.
B-16 melanoma cells were incubated with 0.01 to 100 μg/ml of cisplatin, with 1 to 100 μg/ml of MCC and with 0.01 to 10 μg/ml of cisplatin+1 μg/ml MCC. Cisplatin is an alkylating agent that cross-links DNA and inhibits DNA precursors.
On the technique in general: Tetrazolium dyes change colour on reduction, which living cells bring about.

Assay [2] concerns Jurkat T cell leukemia cells. Kind of assay: Cell cycle analysis, synchronously dividing (MTX) Jurkat cells. The assay is classed as cell-based, human. As to conditions: MTX alone (0.08 μM). On the procedure:
(§1) Cell cycle stage was determined using a CYCLETEST™ PLUS DNA commercial kit (Becton Dickinson, San Jose, Calif., USA). Briefly, nuclei from treated cells were obtained by dissolving the cell membrane in a nonionic detergent, eliminating the cell cytoskeleton and nuclear proteins with trypsin, digesting the cellular RNA with RNase, and stabilizing the nuclear chromatin with spermine. Propidium iodide was added to the cell nuclei and their fluorescence was analyzed in a flow cytometer equipped with electronic doublet discrimination capability (FACSCalibur, Becton Dickinson). Accumulation of cells in GO/G1, S (SE, SM, SL) or G2/M phases of the cell cycle was analyzed using MODFIT LT software (Verity Software House Inc., Topsham, Mass., USA). Results are expressed as percentage of cells in each phase of the cell cycle.
(§2) To synchronize cell populations, exponentially growing cells were incubated in tissue culture medium containing 0.04 to 0.16 μM methotrexate (MTX) for 20 hours. The MTX medium was removed, cells were washed extensively with phosphate buffered saline (PBS), fresh medium was added, incubation was continued for 8 hours and cell cycle analysis was performed as in Example 4.
(§3) Exponentially growing Jurkat, HL-60, HL-60MX1 and EL-4 cells, at 1×10^6 cells/ml, and B-16 cells, at 3×10^5 cells/ml, were prepared for analysis as in Example 5 with 0, 10 and 100 μg/ml of MCC in the MTX medium.
Exponentially growing Jurkat leukemia cells, at 1×10^6 cells/ml, were prepared for analysis as in Example 5 with 0 and 10 μg/ml of MCC and 10 μg/ml DNase I-treated MCC in the MTX medium.

For another assay, the system named is EL-4 lymphoma cells. Kind of assay: Cell cycle analysis, synchronously dividing (MTX) EL-4 cells. As to conditions: MTX alone (0.16 μM). The assay is classed as cell-based, murine. The procedure:
as §1, §2, §3

For assay [3], the system named is mitoxantrone resistant promyelocytic HL-60MX1 leukemia cells. Put plainly: Cell cycle analysis, synchronously dividing (MTX) HL-60MX1 cells. The assay is classed as cell-based, human. The settings on record: MTX alone (0.04 μM). On the procedure: as §1, §2, §3
Assay [4] relates to promyelocytic HL60 leukemia cells (HL-60). Kind of assay: Cell cycle analysis, synchronously dividing (MTX) HL-60 cells. The assay is classed as cell-based, human. The settings on record: MTX alone (0.04 μM). On the procedure: as §1, §2, §3
In assay [5] the test system is B-16 melanoma cells. Put plainly: Cell cycle analysis, synchronously dividing (MTX) B-16 cells. The assay is classed as cell-based, murine. The settings on record: MTX alone. The procedure:
as §1, §2, §3

In a further assay the test system is B-16 melanoma tumors. Kind of assay: Effects of M-DNA and MCC in combination with mitomycin-C on B-16 melanoma tumors in mice. The assay is classed as in vivo. The settings on record: nude BALB/c mice, subcutaneous B-16, after 4 weeks of treatment; Group 1 saline, Group 4 mitomycin-C. The procedure:
B-16 melanoma cells are implanted subcutaneously into 30 male nude BALB/c mice and allowed to grow for 10 days. The mice are divided into 6 groups and tumor mass is measured in each mouse. On day 0, Group 1 mice receive saline, Group 2 mice receive M-DNA, Group 3 mice receive MCC, Group 4 mice receive mitomycin-C, Group 5 mice receive M-DNA and mitomycin-C and Group 6 mice receive MCC and mitomycin-C. After 4 weeks of treatment, the mice are sacrificed and the tumor mass and number of metastases are determined. Group 1 mice have the most tumor mass.

Setting [6] is: 0.1 μg/ml, in the presence of 1 μg/ml MCC.
The mark [7] stands for this setting: 1 μg/ml, in the presence of 1 μg/ml MCC.

As for `O=c1[nH]cc(F)c(=O)[nH]1` [5-fluorouracil], the inhibition at 0.01 µg/mL was about 8% in the assay on B-16 melanoma cells [1] (Mus musculus, B16, 72 h, read-out: inhibited proliferation, 0.01 μg/ml, agent alone, 72 h, MTT) and about 75% in the assay with B-16 melanoma cells [1] (Mus musculus, B16, 72 h, read-out: inhibited proliferation, 0.01 μg/ml, in the presence of 1 μg/ml MCC, 72 h, MTT). Moreover, the inhibition at 0.1 µg/mL in the assay on B-16 melanoma cells [1] (Mus musculus, B16, 72 h, read-out: inhibited proliferation, 0.1 μg/ml, agent alone, 72 h, MTT) is about 50%; in the assay with B-16 melanoma cells [1] (Mus musculus, B16, 72 h, read-out: inhibited proliferation, 0.1 μg/ml, in the presence of 1 μg/ml MCC, 72 h, MTT) it was about 85%. Also, the inhibition at 1 µg/mL was about 90% in the assay on B-16 melanoma cells [1] (Mus musculus, B16, 72 h, read-out: inhibited proliferation, 1 μg/ml, agent alone, 72 h, MTT) and about 90% in the assay with B-16 melanoma cells [1] (Mus musculus, B16, 72 h, read-out: inhibited proliferation, 1 μg/ml, in the presence of 1 μg/ml MCC, 72 h, MTT). Moreover, the inhibition at 10 µg/mL worked out at 100% in the assay with B-16 melanoma cells [1] (Mus musculus, B16, 72 h, read-out: inhibited proliferation, 10 μg/ml, agent alone, 72 h, MTT) and 100% with B-16 melanoma cells [1] (Mus musculus, B16, 72 h, read-out: inhibited proliferation, 10 μg/ml, in the presence of 1 μg/ml MCC, 72 h, MTT). For the same compound, the inhibition at 100 µg/mL in the assay on B-16 melanoma cells [1] (Mus musculus, B16, 72 h, read-out: inhibited proliferation, 100 μg/ml, agent alone, 72 h, MTT) is 100%. Besides, the IC50 stood at 0.005 µg/mL in the assay with B-16 melanoma cells [1] (Mus musculus, read-out: IC50 (concentration for 50% inhibition of B-16 melanoma cell proliferation), Drug + MCC at 1 μg/ml) and 0.12 µg/mL (≈ 0.923 µM) in the assay with B-16 melanoma cells [1] (Mus musculus, read-out: IC50 (concentration for 50% inhibition of B-16 melanoma cell proliferation), Drug Alone).

As for `CN(Cc1cnc2nc(N)nc(N)c2n1)c1ccc(C(=O)N[C@@H](CCC(=O)O)C(=O)O)cc1` [MTX, methotrexate], the “PERCENTAGE OF CELLS IN EACH PHASE: G0G1 + SE” value in assay [2] was 44.6% and 43.0%; with EL-4 lymphoma cells it was 18.3%; in assay [3], 46.1%; in assay [4], 50.3%; with B-16 melanoma cells [5], 48.3%. For the same compound, the “PERCENTAGE OF CELLS IN EACH PHASE: SL + G2M” value is 30.1% and 31.4% in assay [2]; 63.3% with EL-4 lymphoma cells; 18.4% in assay [3]; 25.5% in assay [4]; 46.3% with B-16 melanoma cells [5]. The “PERCENTAGE OF CELLS IN EACH PHASE: SM” value in assay [2] is 25.3% and 25.6%; with EL-4 lymphoma cells, 18.4%; in assay [3], 35.5%; in assay [4], 24.2%; in the assay with B-16 melanoma cells [5], 5.4%.

Regarding `N.N.[Cl][Pt][Cl]` [cisplatin], the inhibited proliferation with B-16 melanoma cells [1] (0.01 μg/ml, agent alone) was 0%; in the assay on B-16 melanoma cells [1] (0.01 μg/ml, in the presence of 1 μg/ml MCC), “about 40%”; with B-16 melanoma cells [1] (0.1 μg/ml, agent alone), “about 8%”; in the assay with B-16 melanoma cells [1] (setting [6]), “about 50%”; in the assay with B-16 melanoma cells [1] (1 μg/ml, agent alone) it was “about 62%”; in the assay on B-16 melanoma cells [1] (setting [7]) it was “about 70%”. The inhibited proliferation result is listed as “about 90%” with B-16 melanoma cells [1] (10 μg/ml, agent alone); “about 90%” in the assay with B-16 melanoma cells [1] (10 μg/ml, in the presence of 1 μg/ml MCC); 100% with B-16 melanoma cells [1] (100 μg/ml, agent alone). The “IC50 (concentration for 50% inhibition of B-16 melanoma cell proliferation), Drug + MCC at 1 μg/ml” value with B-16 melanoma cells [1] turned out to be 0.16 µg/mL. In the assay on B-16 melanoma cells [1], the “IC50 (concentration for 50% inhibition of B-16 melanoma cell proliferation), Drug Alone” value was 0.6 µg/mL.

Turning to `CO[C@@]12[C@H](COC(N)=O)C3=C(C(=O)C(C)=C(N)C3=O)N1C[C@@H]1N[C@@H]12` [mitomycin-C], the inhibited proliferation result in the assay on B-16 melanoma cells [1] (0.1 μg/ml, agent alone) was “about 5%”; in the assay on B-16 melanoma cells [1] (setting [6]), “about 40%”; in the assay with B-16 melanoma cells [1] (1 μg/ml, agent alone), “about 10%”; in the assay with B-16 melanoma cells [1] (setting [7]), “about 65%”; in the assay on B-16 melanoma cells [1] (10 μg/ml, agent alone), 100%; with B-16 melanoma cells [1] (100 μg/ml, agent alone), 100%. In addition, the inhibited proliferation in the assay on B-16 melanoma cells [1] (100 μg/ml, in the presence of 1 μg/ml MCC) is 100%. The “IC50 (concentration for 50% inhibition of B-16 melanoma cell proliferation), Drug + MCC at 1 μg/ml” value with B-16 melanoma cells [1] stood at 0.12 µg/mL. Also, the “IC50 (concentration for 50% inhibition of B-16 melanoma cell proliferation), Drug Alone” value in the assay with B-16 melanoma cells [1] turned out to be 2.2 µg/mL. For the same compound, the tumor mass result with B-16 melanoma tumors is “less tumor mass than Group 1 mice”.
